What was measured:
in vivo = details: mouse
Method: The compound was administered at a dose of 5 mg/kg i.v. and at two doses (5 and 15 mg/kg) i.p. Before the dose (time 0) and up to 8 h at different time points following compound administration, three to five mice per time point were exsanguinated while under light ketamine/xylazine anesthesia. Blood and brains were harvested to the last measured point, whereas liver, kidneys, and lungs were collected at 0.25, 0.5, and 1 h. Serum and tissues were stored at −80 °C until assayed.
Tissues (liver, kidney, brain, and lung) were homogenized with water in a 1:5 ratio (w/v). Prior to the extraction, 100 μL of the plasma samples or 500 μL of tissue homogenates containing calibrators or authentic samples were spiked with 10 μL of IS working solution in a snap-cap microcentrifuge tubes and vortexed (Reax top, Heidolph, Schwabach, Germany) for 15 s. The serum and tissue samples were then alkalized with, respectively, 20 μL or 50 μL of 4 M sodium hydroxide solution, mixed briefly on the vortex mixer, and extracted with 1 mL of ethyl acetate/hexane (30:70, v/v) mixture by mixing for 20 min on a shaker (VXR Vibrax, IKA, Staufen, Germany). Then samples were centrifuged (EBA 12 R, Hettich, Germany) at 8000 g for 15 min and the organic layer of each sample was transferred to a new snap-cap microcentrifuge tube containing 200 μL of a methanol/0.1 M sulfuric acid mixture (1:9, v/v). Subsequently the samples were vortexed (20 min) and centrifuged again (8000 g, 15 min). Finally, the organic layer was discarded and 10–50 μL of the acidic layer was transferred to the autosampler vials (4 °C).
The HPLC system (LaChrom Elite, Merck Hitachi) consisted of the following components: an L-2130 pump, an L-2200 autosampler with a 100 μL sample loop, an L-2350 oven, and an L-2485 fluorescence detector. Excitation and emission wavelengths were set to 260 nm and 330 nm, respectively. Analysis was performed at a temperature of 25 °C on a 250 mm × 4 mm LiChrospher 100 RP-18 column from Merck Millipore (Germany), filled with 5 μm particles, protected with LiChroCART precolumn (10 μm particle size). The mobile phase containing acetonitrile and 20 mM potassium dihydrogen phosphate buffer (pH 4.5) in a 7:3 (v/v) ratio was filtered through the 0.45 µm membrane filter (Supelco Inc., Mainz, Germany) before use and pumped at a flow rate of 1.5 mL/min. […] The method was validated for serum, brain, liver kidney, and lungs.
Both one- and two-compartment pharmacokinetic models were tested. Bioavailability was estimated as a model parameter (F). […] The maximum concentration (Cmax) and the time to reach peak concentration (tmax) were obtained directly from the concentration–time data. The terminal elimination rate constant (λz) was assessed using linear regression. Terminal half-life (t0.5λz) was calculated as ln2/λz. The area under the concentration–time curve from 0 to last measured point (AUC0–last) was calculated using the linear trapezoidal rule. Non-compartmental and model-dependent analyses were performed using Phoenix WinNonlin version 6.3 (Pharsight Corp., Mountain View, CA, USA). The final pharmacokinetic model was selected on the basis of visual inspection of the fitting, examination of residuals, parameter precision, Akaike Information Criteria, and Schwarz Criteria.

SLIGRL-induced pruritus = experiment: SLIGRL-induced pruritus; format: in vivo; details: mice, 45 min observation
Method: The area (around 2 cm^2) of the nape of mice was shaved at least 2 days prior to experiments. On the day of the experiment, each mouse was individually placed in plastic chambers (15 × 15 × 30 cm). After the 30 min period of habituation, the mice received an intradermal (i.d.) injection of histamine dihydrochloride (10 µmol/site), chloroquine (CQ, 200 µg/site), or SLIGRL-NH2 (40 nmol/site), which were dissolved in physiological saline and administrated at the constant volume of 20 μL. Immediately following the injection, scratching (series of movements considered as a single scratching bout usually consisted of three single scratches) of the injected site by the hind paw was counted for 60 min, 30 min, or 45 min after histamine, CQ, and SLIGRL-NH2 injection, respectively.

[1] = test system: carrageenan-induced edema; experiment: carrageenan-induced paw edema; format: in vivo; details: rats, 30 mg/kg
Method: The acute, local inflammation and paw edema was induced by subplantar injection of 0.1 mL of 1% carrageenan (made in PBS) into the rat right hind paw. The paw volume was measured using the dislocation of the water column of the plethysmometer (Plethysmometr 7140, Ugo Basile) before and at 1, 2, and 3 h after subplantar injection of carrageenan.

[2] = test system: (R)-(-)-α-methylhistamine-induced dipsogenia; set-up: method as in PMID 28797771; details: rats; cited from earlier work
[3] = molecular target: human histamine H1 receptor; set-up: method as in PMID 28797771; details: cited from earlier work
[4] = up to 10 μM; cited from earlier work
human μ opioid receptor = molecular target: T1, human μ opioid receptor (Homo sapiens, UniProt P35372); experiment: radioligand binding, human opioid μ receptor ([3H]DAMGO, HEK293 cells)
T1 construct: host or cells: HEK293 cells

hMAO B = test system: hMAO B; set-up: method as in PMID 34208297; details: cited from earlier work
[5] = molecular target: T2, human kappa opioid receptor (Homo sapiens, UniProt P41145); experiment: radioligand binding, human opioid kappa receptor ([3H]U69593, RBL cells)
T2 construct: host or cells: RBL cells
T2 sequence (P41145 whole entry): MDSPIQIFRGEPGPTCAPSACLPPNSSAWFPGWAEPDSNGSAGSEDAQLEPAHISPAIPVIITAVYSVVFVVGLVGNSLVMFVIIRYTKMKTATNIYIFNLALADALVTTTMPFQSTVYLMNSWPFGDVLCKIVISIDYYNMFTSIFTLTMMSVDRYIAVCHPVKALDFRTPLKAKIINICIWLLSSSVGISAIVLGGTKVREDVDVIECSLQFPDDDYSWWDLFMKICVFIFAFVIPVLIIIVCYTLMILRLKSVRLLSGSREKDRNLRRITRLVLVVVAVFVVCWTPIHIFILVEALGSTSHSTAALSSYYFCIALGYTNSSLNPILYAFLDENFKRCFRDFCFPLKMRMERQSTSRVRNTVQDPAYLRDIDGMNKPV

T1 sequence (P35372 whole entry): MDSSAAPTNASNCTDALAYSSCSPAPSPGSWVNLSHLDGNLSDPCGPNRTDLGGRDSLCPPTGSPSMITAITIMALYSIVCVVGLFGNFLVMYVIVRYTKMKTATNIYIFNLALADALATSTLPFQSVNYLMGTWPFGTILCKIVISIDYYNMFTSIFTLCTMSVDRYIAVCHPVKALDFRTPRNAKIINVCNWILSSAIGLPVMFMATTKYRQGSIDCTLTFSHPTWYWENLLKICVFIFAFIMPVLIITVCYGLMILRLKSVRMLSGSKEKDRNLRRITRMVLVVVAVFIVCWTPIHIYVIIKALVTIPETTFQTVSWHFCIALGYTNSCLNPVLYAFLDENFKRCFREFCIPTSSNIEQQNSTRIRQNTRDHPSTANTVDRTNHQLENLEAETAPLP

SMILES: O=C(O)C(=O)O.c1ccc(-c2ccc(OCCCCCN3CCCCCC3)cc2)cc1 [Compound E153, 1-(5-(4-Phenylphenoxy)pentyl)azepane hydrogen oxalate]
- Vc (volume of the central compartment) (in vivo): 6.39 L/kg
- half-life (in vivo): 41.6 min
- k12 (first-order distribution rate constant) (in vivo): 0.33 h⁻¹
- k21 (first-order distribution rate constant) (in vivo): 0.19 h⁻¹
- k el (in vivo): 0.000278 s⁻¹
- time of high (peak) concentrations in brain tissue (in vivo): 0.5 to 1 h
- k01 (first-order absorption rate constant, ka) (in vivo; ip): 2.32 h⁻¹
- Kp (in vivo; ip, 5 mg/kg): 28.5
- brain t0.5λz (in vivo; ip, 5 mg/kg): 1.03 h
- Kp (in vivo; ip, 15 mg/kg): 14.7
- brain Cmax (in vivo; ip, 15 mg/kg): 11,682.69 ng/g
- brain t0.5λz (in vivo; ip, 15 mg/kg): 1.46 h
- Kp (in vivo; iv, 5 mg/kg): 15.7
- Tmax (in vivo; iv, 5 mg/kg): 15 min
- brain t0.5λz (in vivo; iv, 5 mg/kg): 0.90 h
- highest concentration in liver (in vivo; iv, 5 mg/kg): 5.32 µg/g
- highest concentration in lung tissue (in vivo; iv, 5 mg/kg): 43.13 µg/g
- scratch bouts, SLIGRL-induced pruritus (SLIGRL-induced pruritus; 5 mg/kg i.p.): not effective
- scratch bouts, SLIGRL-induced pruritus (SLIGRL-induced pruritus; 7.5 and 10 mg/kg i.p.): significantly diminished
- paw volume increase, carrageenan edema ([1]; 1 h after carrageenan, vehicle 51.1%): 27.1%
- paw volume increase, carrageenan edema ([1]; 2 h after carrageenan, vehicle 102.4%): 45.4%
- paw volume increase, carrageenan edema ([1]; 3 h after carrageenan, vehicle 123.5%): 42.6%
- ED50, (R)-(-)-α-methylhistamine-induced dipsogenia [2]: 1.75 mg/kg
- Ki [3]: 1270 nM
- mutagenicity in the AMES test [4]: non-mutagenic
- inhibition at 1 µM (human μ opioid receptor): 11%
- IC50 (hMAO B): 240 nM
- inhibition at 1 µM [5]: 52%

Reference: article PMC10609854 (Pharmaceuticals, 2023)
